Measured values: patent US6323187A, “Therapeutic dinucleotide and derivatives” (priority 1999, dated 2001)

Columns and labels:
in vitro = conditions: human, bronchial epithelial cells, pH 7.2
Experimental: Epithelial cells were grown as monolayers on an airliquid interface in ALI medium. Assays were conducted on fully differentiated cells in KRB-Ringer solution (pH 7.2) at 37° C. with 0.1 mM nucleotide substrate. Aliquots of airway surface liquid were removed at 5, 10, 15, 20, 40 and 60 minutes. The metabolism was stopped by boiling and filtering the aliquots, and the samples were analyzed by high performance liquid chromatography using the following conditions: C- 18 column with a 55 min gradient of 10-100 mM KH2 PO4 and constant 8 mM tetrabutyl ammonium hydrogen sulfate and 10% methanol).

sputum production = conditions: normal healthy volunteers; background section; cited from earlier work
P2Y4 = P2Y4 (Homo sapiens, UniProt P51582); assay: Inositol phosphate assay, P2Y4 receptor; assay type: cell-based; conditions: IA = no agonist activity at 30 μM
Experimental: (§1) The pharmaceutical utility of the compounds of this invention is indicated by the inositol phosphate assay for P2Y2 and other P2Y receptor activity. This widely used assay, as described in E. Lazarowski, et al., Brit. J. Pharm. 116, 1619-27 (1995), relies on the measurement of inositol phosphate formation as a measurement of activity of compounds activating receptors linked via G-proteins to phospholipase C.
(§2) The compounds of Formula I was tested for its ability to elicit P2Y1, P2Y2, P2Y4 and P2Y6 receptor activity using the inositol phosphate assay as described by E. Lazarowski, et al., Brit. J. Pharm. 116, 1619-27 (1995).

P2Y2 = target: T1, P2Y2 (Homo sapiens, UniProt P41231); assay: Inositol phosphate assay, P2Y2 receptor; assay type: cell-based; conditions: IA = no agonist activity at 30 μM
T1 construct: expressed in transfected cells
T1 sequence (P41231 whole entry): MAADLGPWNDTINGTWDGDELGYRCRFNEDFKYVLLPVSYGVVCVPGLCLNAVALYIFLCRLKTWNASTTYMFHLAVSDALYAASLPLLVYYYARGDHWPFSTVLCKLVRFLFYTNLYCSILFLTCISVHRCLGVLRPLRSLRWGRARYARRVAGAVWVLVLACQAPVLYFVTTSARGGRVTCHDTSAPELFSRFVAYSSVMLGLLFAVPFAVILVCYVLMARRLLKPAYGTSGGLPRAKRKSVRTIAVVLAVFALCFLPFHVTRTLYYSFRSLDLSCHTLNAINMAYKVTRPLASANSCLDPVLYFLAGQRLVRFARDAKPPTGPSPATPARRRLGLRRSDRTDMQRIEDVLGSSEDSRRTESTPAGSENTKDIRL
Experimental: as §1, §2

P2Y1 = assay: Inositol phosphate assay, P2Y1 receptor; assay type: cell-based; conditions: IA = no agonist activity at 30 μM
Experimental: as §1, §2

P2Y6 = assay: Inositol phosphate assay, P2Y6 receptor; assay type: cell-based; conditions: IA = no agonist activity at 30 μM
Experimental: as §1, §2

[1] = tested on: human nasal epithelial cells; assay: Chloride secretion in human nasal airway cells (change in ISC); assay type: cell-based; conditions: more potent than U2 P4; amiloride 100 μM present; apical addition
Experimental: Airway epithelial cells were desegregated and isolated from freshly excised human nasal surgical specimens (Yankaskas, et al., Am. Rev. Respir. Dis. 132, 1281-1287 (1985)). Confluent monolayers were cultured on permeable collagen matrix supports in F-12 hormone-supplemented medium (Wu, et. al., Am. Rev. Respir. Dis. 132, 311-320 (1985)). Cells were incubated at 37° C. and grown to confluence. Development of transepithelial resistance was monitored to determine the formation of tight junctions between the cells. After formation of tight junctions, was confirmed, the matrix supports containing the cultures were mounted in modified Using chambers. […]
Polycarbonate Using chambers were milled to fit the plastic cups that supported the permeable collagen matrix on which the cells were grown. Bioelectric properties including ISC, transepithelial potential difference and resistance were monitored. Short-circuit current (ISC) was measured with a digital voltmeter (UNC Electronics, Chapel Hill, N.C.) and plotted on a strip-chart recorder. The open circuit potential was recorded periodically, and conductance was monitored in the voltage clamp mode by the current deflection in response to a 10-mV voltage pulse.
A stable baseline of ISC was recorded and amiloride (100 μM) was added to the solution bathing the apical surface to block sodium absorption. […] The change in ISC was recorded. […]

Type II alveolar cells = conditions: Gobran (1994); cited from earlier work
[2] = tested on: lung mucociliary clearance; conditions: normal volunteers; K. Olivier, et al. (1996); cited from earlier work
airway epithelial cells = airway epithelial cells in vitro; S. Mason, et al. (1991); cited from earlier work
P2Y2 receptor = conditions: H. Brown, et al. (1991); cited from earlier work
goblet cells = conditions: in vitro; M. Lethem, et al. (1993); cited from earlier work
[3] = tested on: human airway epithelial cells; conditions: human airway epithelial cells in vitro; D. Drutz, et al. (1996); cited from earlier work
cough clearance = conditions: patients with PCD; P. Noone, et al. (1996); cited from earlier work

Chain of P2Y4 (P51582 whole entry, species assumed): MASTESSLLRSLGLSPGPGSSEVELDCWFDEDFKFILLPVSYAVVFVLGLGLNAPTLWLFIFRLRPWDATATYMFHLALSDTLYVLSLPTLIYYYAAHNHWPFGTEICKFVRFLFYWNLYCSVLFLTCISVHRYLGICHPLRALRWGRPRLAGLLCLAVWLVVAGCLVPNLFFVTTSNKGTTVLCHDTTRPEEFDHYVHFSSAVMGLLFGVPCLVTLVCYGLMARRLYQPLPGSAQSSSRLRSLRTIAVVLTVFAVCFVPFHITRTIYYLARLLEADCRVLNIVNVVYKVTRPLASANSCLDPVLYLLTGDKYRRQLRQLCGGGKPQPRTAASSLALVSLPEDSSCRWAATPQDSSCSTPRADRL

## O=c1ccn([C@@H]2O[C@H](COP(=O)(O)OP(=O)(O)OP(=O)(O)OP(=O)(O)OC[C@H]3O[C@@H](n4ccc(=O)[nH]c4=O)[C@H](O)[C@@H]3O)[C@@H](O)[C@H]2O)c(=O)[nH]1 [U2 P4, P^1,P^4 -Di(uridine 5'-)tetraphosphate]
In vitro
  metabolised at 1 h, 100 µM: 40%
Sputum production
  sputum production: increase sputum production

## Nc1ccn([C@@H]2O[C@H](COP(=O)(O)OP(=O)(O)OP(=O)(O)OP(=O)(O)OC[C@H]3O[C@@H](n4ccc(N)nc4=O)[C@H](O)[C@@H]3O)[C@@H](O)[C@H]2O)c(=O)n1 [C2 P4]
P2Y4
  EC50: > 30 µM
P2Y2
  EC50: > 30 µM
P2Y1
  EC50: > 30 µM
P2Y6
  EC50: > 30 µM

## Nc1ccn([C@@H]2O[C@H](COP(=O)(O)OP(=O)(O)OP(=O)(O)OP(=O)(O)OC[C@H]3O[C@@H](n4ccc(=O)[nH]c4=O)[C@H](O)[C@@H]3O)[C@@H](O)[C@H]2O)c(=O)n1 [CP4 U, P^1-(cytidine 5'-)-P^4-(uridine 5'-)-tetraphosphate]
P2Y4
  EC50: 0.65 µM
[1]
  potency relative to U2 P4 in the chloride secretion assay: approximately ten-fold
P2Y2
  EC50: 0.45 µM
P2Y1
  EC50: > 30 µM
P2Y6
  EC50: 3.5 µM

## O=c1ccn([C@@H]2O[C@H](COP(=O)(O)OP(=O)(O)OP(=O)(O)O)[C@@H](O)[C@H]2O)c(=O)[nH]1 [UTP, uridine 5'-triphosphate]
Type II alveolar cells
  release of surfactant from Type II alveolar cells: release of surfactant
[2]
  lung mucociliary clearance: improvement in lung mucociliary clearance
  side-effects: without any significant side-effects
Airway epithelial cells
  Cl^- secretion: increase Cl^- secretion
P2Y2 receptor
  intracellular Ca^++: increase intracellular Ca^++
In vitro
  metabolised at 1 h, 100 µM: 100%
Goblet cells
  mucin secretion by goblet cells: increase both the rate and total amount of mucin secretion
[3]
  cilia beat frequency: increase cilia beat frequency
Cough clearance
  cough clearance: significantly enhances cough clearance
